Assay results taken from ChEMBL document CHEMBL1201862, “PubChem BioAssay data set” (2004).
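Compound exposure: 48 hours, 5 concentrations, 96-well plates. GI50 = concentration required for 50% inhibition of growth.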 Activity calls are given as the source filed them. No stated cut-off is given here; in the data, active = GI50 up to about 1.1 µM and inactive = higher.

Legend:
Test in all cases: NCI anticancer screen, dose series, 48 h
786-0 = system: 786-0
A498 = system: A498
ACHN = system: ACHN
CAKI-1 = system: CAKI-1
K562 = system: K562
NCI-H226 = system: NCI-H226
NCI-H460 = system: NCI-H460
OVCAR-4 = system: OVCAR-4
SF-295 = system: SF-295
SK-OV-3 = system: SK-OV-3
TK-10 = system: TK-10
U-251 = system: U-251
LOX IMVI = system: LOX IMVI
SF-268 = system: SF-268
SN12C = system: SN12C
NCI-H522 = system: NCI-H522

Measured: GI50

CCC(C)(C)NS(=O)(=O)c1ccccc1
inactive: 786-0 > 100 µM | A498 > 100 µM | ACHN > 100 µM | CAKI-1 > 100 µM | K562 > 100 µM | NCI-H226 > 10 µM | NCI-H460 > 100 µM | OVCAR-4 > 100 µM | SF-295 > 100 µM | SK-OV-3 > 100 µM | TK-10 > 100 µM | U-251 > 100 µM

CC(=O)Oc1cc(C)c2c(c1OC(C)=O)CC1(O2)[C@@H](C)CCC2[C@@]3(C)CC[C@H](OC(C)=O)C(C)(C)C3CC[C@]21C (some centres undefined)
inactive: 786-0 2.28 µM | A498 7.46 µM | ACHN 1.67 µM | CAKI-1 2.2 µM | LOX IMVI 4.24 µM | NCI-H226 11.4 µM | NCI-H460 3.45 µM | OVCAR-4 > 10 µM | SF-268 3.37 µM | SF-295 5.01 µM | SK-OV-3 5.36 µM | SN12C 2.98 µM | TK-10 3.61 µM | U-251 3.33 µM

C[Si](C)(C)OC1(C#N)C2C3CC4C2C(=O)C2C4C3C21 (centres undefined)
inactive: 786-0 > 100 µM | A498 > 100 µM | ACHN > 100 µM | CAKI-1 > 100 µM | K562 > 100 µM | NCI-H226 > 100 µM | NCI-H460 > 100 µM | OVCAR-4 > 100 µM | SF-268 > 100 µM | SK-OV-3 > 100 µM | SN12C > 100 µM | TK-10 > 100 µM | U-251 > 100 µM

O=C(Nc1nc2ccccc2n1Cc1ccc(Cl)cc1)NC12CC3CC(CC(C3)C1)C2
inactive: 786-0 20.5 µM | ACHN 35.7 µM | CAKI-1 34.7 µM | K562 32.3 µM | LOX IMVI 34.1 µM | NCI-H226 24 µM | NCI-H460 20.1 µM | NCI-H522 16.1 µM | OVCAR-4 8.99 µM | SF-268 4.12 µM | SF-295 10.9 µM | SK-OV-3 16.2 µM | SN12C 28.4 µM | TK-10 32.5 µM | U-251 20.7 µM

N#C/N=C(\NCCc1c[nH]c2ccccc12)NCc1ccccc1
inactive: 786-0 25.5 µM | ACHN 25.4 µM | K562 42.8 µM | LOX IMVI 75.9 µM | NCI-H226 34.4 µM | NCI-H460 26.8 µM | OVCAR-4 61.4 µM | SF-268 > 100 µM | SF-295 36 µM | SK-OV-3 > 100 µM | SN12C 93.8 µM | TK-10 98.4 µM | U-251 35.2 µM

CSC1(C)CC2C(CC1N1CCOCC1)C2(C)C (centres undefined)
inactive: 786-0 > 100 µM | ACHN > 100 µM | K562 > 100 µM | NCI-H226 > 100 µM | NCI-H460 > 100 µM | OVCAR-4 > 100 µM | SF-268 > 100 µM | SF-295 > 100 µM | SK-OV-3 > 100 µM | SN12C > 100 µM | TK-10 > 100 µM | U-251 > 100 µM
